Assay results from US12495798B2, “Nicotinamide compound and herbicidal composition comprising compound” (KOREA RESEARCH INSTITUTE OF CHEMICAL TECHNOLOGY, priority 2019, dated 2025).

What was measured:
Assay type in all cases: in vivo
cotton = experiment: Phytotoxicity test for upland field crops (foliar treatment test); parameters: key: 0 (no harm); 9 (complete withered)
Outline: (§1)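 Application rate ranged 19˜300 g a.i./ha, delivered as a foliar spray (100 ml/m^2) in 33% acetone with 0.1% Tween-20 to crops raised at 30±5 °C under 14/10 h light/dark. Symptoms were assessed 7 and 14 days post-treatment, extending to 21 days where necessary, using a 0–9 injury grade relative to untreated control.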

corn = experiment: as above; parameters: key: 0 (no harm); 9 (complete withered)
Outline: as §1

wheat = experiment: as above; parameters: key: 0 (no harm); 9 (complete withered)
Outline: as §1

soybean = experiment: as above; parameters: key: 0 (no harm); 9 (complete withered)
Outline: as §1

rice = experiment: as above; parameters: key: 0 (no harm); 9 (complete withered)
Outline: as §1

quack grass = experiment: Herbicidal activity test against upland field weeds (foliar treatment test); parameters: key to Foliar treatment herbicidal activity, quack grass: 0 (no control); 100 (complete control); details: scale 0-100
Outline: (§2)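 Weeds were raised from seed or rootstocks in horticultural soil in a greenhouse (30±5° C., 14/10 h light/dark), then foliage was hand-sprayed with compound at 50 or 75 g a.i./ha in 50% acetone with 0.1% Tween-20. Control was scored visually 0–100 against untreated plants after 14 days, or 21 if needed.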

bindweed = experiment: as above; details: scale 0-100; for pest or weed control at 50 g/ha: 50 g ai/ha
Outline: as §2

indian jointvetch = experiment: Herbicidal activity test against upland field weeds (soil treatment test); parameters: key to Soil treatment herbicidal activity, Indian jointvetch: 0 (no control); 100 (complete control); details: scale 0 (no control) to 100 (complete control)
Outline: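 Pre-emergence test: seeds or rootstocks were sown in fertilized sandy loam, and the next day the soil surface was sprayed with compound at 50 or 75 g a.i./ha in 50% acetone/0.1% Tween-20. Plants were grown in a greenhouse (30±5 °C, 14/10 h light/dark), then visually scored 0–100 against untreated at 14 d (21 d if needed).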

fall panicum = experiment: Herbicidal activity test against upland field weeds (foliar treatment test); details: Panicum dichotomiflorum, scale 0-100; for pest or weed control at 50 g/ha: 50 g ai/ha
Outline: as §2

barnyard grass = experiment: as above; details: Echinochloa crus-galli, scale 0-100; for pest or weed control at 50 g/ha: 50 g ai/ha
Outline: as §2

[1] = 50 g ai/ha, Cotton (7 days after treatment)
[2] = 50 g ai/ha, Cotton (14 days after treatment)
[3] = 100 g ai/ha, Cotton (7 days after treatment)
[4] = 100 g ai/ha, Cotton (14 days after treatment)
[5] = 50 g ai/ha, Corn (7 days after treatment)
[6] = 50 g ai/ha, Corn (14 days after treatment)
[7] = 100 g ai/ha, Corn (7 days after treatment)
[8] = 100 g ai/ha, Corn (14 days after treatment)
[9] = 50 g ai/ha, Wheat (7 days after treatment)
[10] = 50 g ai/ha, Wheat (14 days after treatment)
[11] = 100 g ai/ha, Wheat (7 days after treatment)
[12] = 100 g ai/ha, Wheat (14 days after treatment)
[13] = 50 g ai/ha, Soybean (7 days after treatment)
[14] = 50 g ai/ha, Soybean (14 days after treatment)
[15] = 100 g ai/ha, Soybean (7 days after treatment)
[16] = 100 g ai/ha, Soybean (14 days after treatment)
[17] = 50 g ai/ha, Rice (7 days after treatment)
[18] = 50 g ai/ha, Rice (14 days after treatment)
[19] = 100 g ai/ha, Rice (7 days after treatment)
[20] = 100 g ai/ha, Rice (14 days after treatment)

Row | Structure (SMILES) | Foliar treatment phytotoxicity, Cotton (cotton; [1]) | Foliar treatment phytotoxicity, Cotton (cotton; [2]) | Foliar treatment phytotoxicity, Cotton (cotton; [3]) | Foliar treatment phytotoxicity, Cotton (cotton; [4]) | Foliar treatment phytotoxicity, Corn (corn; [5]) | Foliar treatment phytotoxicity, Corn (corn; [6]) | Foliar treatment phytotoxicity, Corn (corn; [7]) | Foliar treatment phytotoxicity, Corn (corn; [8]) | Foliar treatment phytotoxicity, Wheat (wheat; [9]) | Foliar treatment phytotoxicity, Wheat (wheat; [10]) | Foliar treatment phytotoxicity, Wheat (wheat; [11]) | Foliar treatment phytotoxicity, Wheat (wheat; [12]) | Foliar treatment phytotoxicity, Soybean (soybean; [13]) | Foliar treatment phytotoxicity, Soybean (soybean; [14]) | Foliar treatment phytotoxicity, Soybean (soybean; [15]) | Foliar treatment phytotoxicity, Soybean (soybean; [16]) | Foliar treatment phytotoxicity, Rice (rice; [17]) | Foliar treatment phytotoxicity, Rice (rice; [18]) | Foliar treatment phytotoxicity, Rice (rice; [19]) | Foliar treatment phytotoxicity, Rice (rice; [20]) | other results
1 | Cn1nnnc1NC(=O)c1ccc(C(F)(F)F)nc1OCc1nnnn1C(F)F [Compound No. 1-26, 2-((1-(difluoromethyl)-1H-tetrazol-5-yl)methoxy)-N-(1-methyl-1H-tetrazol-5-yl)-6-(trifluoromethyl)nicotinamide] | 2 | 6 | 4 | 9 | 1 | 0 | 2 | 2 | 0 | 0 | 1 | 2 | 5 | 5 | 5 | 5 | 3 | 6 | 4 | 7 | Foliar treatment herbicidal activity, quack grass (quack grass; 50 g ai/ha): 0; pest or weed control at 50 g/ha (bindweed): 60%; pest or weed control at 50 g/ha (indian jointvetch; 50 g ai/ha): 70%; pest or weed control at 50 g/ha (fall panicum): 98%; pest or weed control at 50 g/ha (barnyard grass): 95%
2 | Cn1ncnc1COc1nc(C(F)(F)F)ccc1C(=O)Nc1nnnn1C [Compound No. 1-45, 2-((1-methyl-1H-1,2,4-triazol-5-yl)methoxy)-N-(1-methyl-1H-tetrazol-5-yl)-6-(trifluoromethyl)nicotinamide] | 5 | 9 | 5 | 9 | 1 | 0 | 3 | 2 | 0 | 0 | 0 | 0 | 6 | 7.5 | 7 | 9 | 6 | 9 | 6 | 9 | pest or weed control at 50 g/ha (quack grass; 50 g ai/ha): 40%; pest or weed control at 50 g/ha (bindweed): 98%; Soil treatment herbicidal activity, Indian jointvetch (indian jointvetch; 50 g ai/ha): 0; pest or weed control at 50 g/ha (fall panicum): 95%; pest or weed control at 50 g/ha (barnyard grass): 95%
3 | Cn1nnnc1COCc1nc(C(F)(F)F)ccc1C(=O)Nc1nnnn1C [Compound No. 1-61, N-(1-methyl-1H-tetrazol-5-yl)-2-(((1-methyl-1H-tetrazol-5-yl)methoxy)methyl)-6-(trifluoromethyl)nicotinamide] | 3 | 6 | 0 | 7 | 0 | 0 | 0 | 0 | 4 | 3 | 0 | 6 | 6 | 9 | 0 | 9 | 4 | 6 | 5 | 6 | Foliar treatment herbicidal activity, quack grass (quack grass; 50 g ai/ha): 0; pest or weed control at 50 g/ha (bindweed): 70%; Soil treatment herbicidal activity, Indian jointvetch (indian jointvetch; 50 g ai/ha): 100; pest or weed control at 50 g/ha (fall panicum): 70%; pest or weed control at 50 g/ha (barnyard grass): 95%
4 | Cn1ncnc1COCc1nc(C(F)(F)F)ccc1C(=O)Nc1nnnn1C [Compound No. 1-102, 2-(((1-methyl-1H-1,2,4-triazol-5-yl)methoxy)methyl)-N-(1-methyl-1H-tetrazol-5-yl)-6-(trifluoromethyl)nicotinamide] | 4 | 8 | 5 | 9 | 6 | 6 | 6 | 8 | 2 | 2 | 3 | 3 | 5 | 8 | 6 | 9 | 6 | 8 | 7 | 9 | Foliar treatment herbicidal activity, quack grass (quack grass; 50 g ai/ha): 0; pest or weed control at 50 g/ha (bindweed): 60%; pest or weed control at 50 g/ha (indian jointvetch; 50 g ai/ha): 20%; pest or weed control at 50 g/ha (fall panicum): 70%; pest or weed control at 50 g/ha (barnyard grass): 80%
5 | CN(Cc1nnn(C)n1)c1nc(C(F)(F)F)ccc1C(=O)Nc1nnnn1C [Compound No. 2-26, 2-(methyl((2-methyl-2H-tetrazol-5-yl)methyl)amino)-N-(1-methyl-1H-tetrazol-5-yl)-6-(trifluoromethyl)nicotinamide] | 1 | 4 | 2 | 4 | 0 | 0 | 0 | 0 | 1 | 0 | 1 | 0 | 3 | 9 | 4 | 9 |  |  |  |  | Foliar treatment herbicidal activity, quack grass (quack grass; 75 g ai/ha): 0; pest or weed control at 75 g/ha (bindweed; 75 g ai/ha): 95%; Soil treatment herbicidal activity, Indian jointvetch (indian jointvetch; 75 g ai/ha): 100; pest or weed control at 75 g/ha (fall panicum; 75 g ai/ha): 70%; pest or weed control at 75 g/ha (barnyard grass; 75 g ai/ha): 98%
